Results from patent US6335013B1, “Methods and materials relating to CD39-like polypeptides” (Hyseq, Inc., priority 1999, dated 2002).
Where a chain is given by its changes, count along the chain named. Each block holds one molecule with its values, some of them ahead of it.

Key:
CD39-L4 [1] = target: T1, CD39-L4 (Homo sapiens, UniProt O75356); assay: Substrate (nucleotide) specificity of CD39-L4, inorganic phosphate release; type: biochemical; details: nucleotide 1 mM; for % OF CONTROL, substrate specificity of CD39-L4: relative to ADP, buffer A with 1 mM EGTA, 2 mM CaCl2 and MgCl2
T1 construct: to allow purification of the secreted mature form of the protein; made in house; host or cells: COS-7 cells, transient transfection (pcDNA3.1); protein captured from the medium on Nickel-NTA resin
T1 sequence (O75356 25-428): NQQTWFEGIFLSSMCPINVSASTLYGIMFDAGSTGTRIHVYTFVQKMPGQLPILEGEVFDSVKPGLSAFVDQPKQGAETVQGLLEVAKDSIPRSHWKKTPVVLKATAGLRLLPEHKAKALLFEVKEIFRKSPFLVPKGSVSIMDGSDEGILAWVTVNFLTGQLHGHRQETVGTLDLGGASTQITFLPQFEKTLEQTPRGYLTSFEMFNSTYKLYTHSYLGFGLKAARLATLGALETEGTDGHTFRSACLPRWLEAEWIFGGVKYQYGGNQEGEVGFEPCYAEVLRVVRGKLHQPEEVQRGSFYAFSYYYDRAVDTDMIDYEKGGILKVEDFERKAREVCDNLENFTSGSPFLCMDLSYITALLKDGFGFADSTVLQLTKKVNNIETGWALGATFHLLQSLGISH

CD39-L2 [2] = assay: Substrate (nucleotide) specificity of CD39-L2, inorganic phosphate release; type: biochemical, human; details: for % OF CONTROL, substrate specificity of CD39-L2: relative to ADP, nucleotide 1 mM, buffer A with 1 mM EGTA, 3 mM CaCl2 and 3 mM MgCl2, 37° C., 30 min; for enzymatic activity relative to ADP hydrolysis: assays repeated with 15 mM ADP and 15 mM CaCl2
CD39-L4 [3] = target: T1, CD39-L4; assay: Inhibition of CD39-L4 ADPase activity by ATPase/phosphatase inhibitors and chelators; type: biochemical; details: concentrations as in Table 1
CD39-L2 [4] = assay: Inhibition of CD39-L2 ADPase activity by ATPase/phosphatase inhibitors and chelators; type: biochemical, human; details: concentrations as in Table 3
[5] = ADPase and ATPase activity of CD39L4 wild type and ACR mutants, inorganic phosphate released; type: biochemical
[6] = target: the molecule itself; assay: Western blot of SDS-PAGE, self-association (dimer)
[7] = Kinetic characteristics of CD39-L2 ADP hydrolysis; type: biochemical
[8] = ADPase activity of CD39-L2 from transfected COS-7 cells, stimulation by divalent cations and Ca2+ titration; type: biochemical
[9] = ADPase activity of CD39-L4 forms (insect-expressed, dimer, deglycosylated); type: biochemical
[10] = 15 mM CaCl2, ADP 0.75-18 mM, 15 min, 37° C.

Molecule: Nc1ncnc2c1ncn2[C@@H]1O[C@H](COP(=O)(O)OP(=O)(O)O)[C@@H](O)[C@H]1O [ADP, Adenosine diphosphate]
rate of ADP hydrolysis by CD39-L4 relative to ATP (CD39-L4 [1]): approximately twenty-fold higher than ATP
% OF CONTROL, substrate specificity of CD39-L4 (CD39-L4 [1]): 100 ± 15%
% OF CONTROL, substrate specificity of CD39-L2 (CD39-L2 [2]): 100 ± 8%

Molecule: Nc1ncnc2c1ncn2[C@@H]1O[C@H](COP(=O)(O)OP(=O)(O)OP(=O)(O)O)[C@@H](O)[C@H]1O [ATP, Adenosine triphosphate]
hydrolysis of the nucleotide by CD39-L4, in words (CD39-L4 [1]): poorest substrate
% OF CONTROL, substrate specificity of CD39-L4 (CD39-L4 [1]): 5 ± 1%
% OF CONTROL, substrate specificity of CD39-L2 (CD39-L2 [2]): 16 ± 2%

Molecule: Nc1ncnc2c1ncn2[C@@H]1O[C@H](COP(=O)(O)OP(=O)(O)OP(=O)(O)OP(=O)(O)OP(=O)(O)OC[C@H]2O[C@@H](n3cnc4c(N)ncnc43)[C@H](O)[C@@H]2O)[C@@H](O)[C@H]1O [Ap5A]
inhibition of Ca2+ and Mg2+ stimulated CD39-L4 ADPase activity, in words (CD39-L4 [3]): did not inhibit activity
inhibition of CD39-L2 ADPase activity, in words (CD39-L2 [4]): did not inhibit activity

Molecule: [N-]=[N+]=[N-] [N3^−]
inhibition of Ca2+ and Mg2+ stimulated CD39-L4 ADPase activity, in words (CD39-L4 [3]): did not significantly inhibit
inhibition of CD39-L2 ADPase activity, in words (CD39-L2 [4]): not inhibited

Molecule: C[C@@H]1O[C@@H](O[C@H]2C[C@@H](O)[C@]3(CO)[C@H]4[C@H](O)C[C@]5(C)[C@@H](C6=CC(=O)OC6)CC[C@]5(O)[C@@H]4CC[C@]3(O)C2)[C@H](O)[C@H](O)[C@H]1O [Ouabain]
inhibition of Ca2+ and Mg2+ stimulated CD39-L4 ADPase activity, in words (CD39-L4 [3]): did not significantly inhibit
inhibition of CD39-L2 ADPase activity, in words (CD39-L2 [4]): not inhibited

B1: ACR III: variant CD39-L4 with substitutions D168→T, S170→Q and L175→F (protein)
chain: MATSWGTVFFMLVVSCVCSAVSHRNQQTWFEGIFLSSMCPINVSASTLYGIMFDAGSTGTRIHVYTFVQKMPGQLPILEGEVFDSVKPGLSAFVDQPKQGAETVQGLLEVAKDSIPRSHWKKTPVVLKATAGLRLLPEHKAKALLFEVKEIFRKSPFLVPKGSVSIMTGQDEGIFAWVTVNFLTGQLHGHRQETVGTLDLGGASTQITFLPQFEKTLEQTPRGYLTSFEMFNSTYKLYTHSYLGFGLKAARLATLGALETEGTDGHTFRSACLPRWLEAEWIFGGVKYQYGGNQEGEVGFEPCYAEVLRVVRGKLHQPEEVQRGSFYAFSYYYDRAVDTDMIDYEKGGILKVEDFERKAREVCDNLENFTSGSPFLCMDLSYITALLKDGFGFADSTVLQLTKKVNNIETGWALGATFHLLQSLGISH
hydrolysis of ADP, in words ([5]; ADP as substrate): hydrolyze ADP
hydrolysis of ATP, in words ([5]; ATP as substrate): neither the CD39L4 nor the CD39L4 mutant, ACR III, catalyzed hydrolysis
ADPase activity compared to wild type CD39-L4 ([5]; protein from COS-7 medium, 1 mM ADP, increase due to amount of protein, not specific activity): six-fold over wild type

B2: CD39L4 Cys39 to Ser mutant with a myc epitope and a 6 His tag at the C-terminus (enzyme, not shown: small tags and cut ends)
chain: HRNQQTWFEGIFLSSMSPINVSASTLYGIMFDAGSTGTRIHVYTFVQKMPGQLPILEGEVFDSVKPGLSAFVDQPKQGAETVQGLLEVAKDSIPRSHWKKTPVVLKATAGLRLLPEHKAKALLFEVKEIFRKSPFLVPKGSVSIMDGSDEGILAWVTVNFLTGQLHGHRQETVGTLDLGGASTQITFLPQFEKTLEQTPRGYLTSFEMFNSTYKLYTHSYLGFGLKAARLATLGALETEGTDGHTFRSACLPRWLEAEWIFGGVKYQYGGNQEGEVGFEPCYAEVLRVVRGKLHQPEEVQRGSFYAFSYYYDRAVDTDMIDYEKGGILKVEDFERKAREVCDNLENFTSGSPFLCMDLSYITALLKDGFGFADSTVLQLTKKVNNIETGWALGATFHLLQSLGISH
notes: also called Ser39 mutant; cys-mutant CD39L4
binding result [6]: no binding

B3: CD39L4 Cys39 to Ala mutant with a myc epitope and a 6 His tag at the C-terminus (enzyme, not shown: small tags and cut ends)
chain: B2 chain with S17A
notes: also called Ala39 mutant; cys-mutant CD39L4
binding result [6]: no binding

B4: CD39-L2myc-His (protein)
chain: MKKGIRYETSRKTSYIFQQPQHGPWQTRMRKISNHGSLRVAKVAYPLGLCVGVFIYVAYIKWHRATATQAFFSITRAAPGARWGQQAHSPLGTAADGHEVFYGIMFDAGSTGTRVHVFQFTRPPRETPTLTHETFKAVKPGLSAYADDVEKSAQGIRELLDVAKQDIPFDFWKATPLVLKATAGLRLLPGEKAQKLLQKVKEVFKASPFLVGDDCVSIMNGTDEGVSAWITINFLTGSLKTPGGSSVGMLDLGGGSTQIAFLPRVEGTLQASPPGYLTALRMFNRTYKLYSYSYLGLGLMSARLAILGGVEGQPAKDGKELVSPCLSPSFKGEWEHAEVTYRVSGQKAAASLHELCAARVSEVLQNRVHRTEEVKHVDFYAFSYYYDLAAGVGLIDAEKGGSLVVGDFEIAAKYVCRTLETQPQSSPFSCMDLTYVSLLLQEFGFPRSKVLKLTRKIDNVETSWALGAIFHYIDSLNRQKSPAS
K (Hill's Equation) [7, 10]: 364.5
cooperativity, n (Hill's Equation) [7, 10]: 2.48
Vmax of ADP hydrolysis ([7]; 15 mM CaCl2, ADP 0.75-18 mM, 15 min, 37° C., 3.5 ng protein per reaction): 1028 pmol/min
substrate at half-maximal velocity [S]0.5 ([7]; [S]0.5=K^1/n): 10.6 mM
stimulation of ADPase activity by Ca2+ ([8]; 15 mM ADP, CaCl2 added to 15 mM): 17 fold
stimulation of ADPase activity by Mg2+ ([8]; 15 mM ADP, MgCl2 added to 15 mM): 8 fold
fold increase in ADPase activity over cells transfected with vector alone ([8]; CD39-L2myc-His from COS-7 medium on Nickel-NTA resin, 1 mM ADP, no added cation): 8.7 fold
further fold increase in ADPase activity when Ca2+ and Mg2+ added ([8]; Ca2+ and Mg2+ added, 1 mM ADP): 2-3 fold
effect of high Ca2+ concentration on ADPase activity ([8]; CaCl2 2-15 mM, low substrate concentration, 37° C., 20 min): no inhibitory effect

B5: CD39L4 dimer: dimeric form of secreted CD39L4 (protein, UniProt O75356 25-428, looked up)
Nucleoside diphosphate …: T1 sequence (O75356 25-428)
modifications: dimer
enzymatic (ADPase) activity of the dimer ([9]; monomer and dimer enriched sucrose density gradient fractions): does not possess any significant level of enzymatic activity

B6: deglycosylated CD39-L4: CD39-L4 from tunicamycin treated COS-7 cells (protein, UniProt O75356 25-428, looked up)
Nucleoside diphosphate …: T1 sequence (O75356 25-428)
modifications: deglycosylated (tunicamycin)
notes: CD39-L4 from tunicamycin treated COS-7 cells
ADPase activity of deglycosylated protein ([9]; from tunicamycin (5 μg/ml) treated COS-7 cells): comparable to an equal amount of the glycosylated protein

The next lines start with results.

% OF CONTROL, substrate specificity of CD39-L4 (CD39-L4 [1]): 268 ± 11%
Molecule: Nc1ccn([C@@H]2O[C@H](COP(=O)(O)OP(=O)(O)O)[C@@H](O)[C@H]2O)c(=O)n1 [CDP]
enzymatic activity relative to ADP hydrolysis (CD39-L2 [2]): 73%
% OF CONTROL, substrate specificity of CD39-L2 (CD39-L2 [2]): 282 ± 18%

% OF CONTROL, substrate specificity of CD39-L4 (CD39-L4 [1]): 26 ± 2%
Molecule: Nc1ccn([C@@H]2O[C@H](COP(=O)(O)OP(=O)(O)OP(=O)(O)O)[C@@H](O)[C@H]2O)c(=O)n1 [CTP]
% OF CONTROL, substrate specificity of CD39-L2 (CD39-L2 [2]): 44 ± 4%

inhibition of Ca2+ and Mg2+ stimulated CD39-L4 ADPase activity, in words (CD39-L4 [3]): significantly inhibited activity
Molecule: O=C(O)CN(CCN(CC(=O)O)CC(=O)O)CC(=O)O [EDTA]
inhibition of CD39-L2 ADPase activity, in words (CD39-L2 [4]): inhibited CD39-L2 activity

inhibition of Ca2+ and Mg2+ stimulated CD39-L4 ADPase activity, in words (CD39-L4 [3]): significantly inhibited activity
Molecule: O=C(O)CN(CCOCCOCCN(CC(=O)O)CC(=O)O)CC(=O)O [EGTA]
inhibition of CD39-L2 ADPase activity, in words (CD39-L2 [4]): inhibited CD39-L2 activity

inhibition of Ca2+ and Mg2+ stimulated CD39-L4 ADPase activity, in words (CD39-L4 [3]): did not inhibit activity
Molecule: F [F^−]
inhibition of CD39-L2 ADPase activity, in words (CD39-L2 [4]): partially inhibited activity

hydrolysis of the nucleotide by CD39-L4, in words (CD39-L4 [1]): very efficiently hydrolyzed
% OF CONTROL, substrate specificity of CD39-L4 (CD39-L4 [1]): 334 ± 38%
Molecule: Nc1nc2c(ncn2[C@@H]2O[C@H](COP(=O)(O)OP(=O)(O)O)[C@@H](O)[C@H]2O)c(=O)[nH]1 [GDP]
enzymatic activity relative to ADP hydrolysis (CD39-L2 [2]): 280%
% OF CONTROL, substrate specificity of CD39-L2 (CD39-L2 [2]): 338 ± 52%

% OF CONTROL, substrate specificity of CD39-L4 (CD39-L4 [1]): 34 ± 1%
Molecule: Nc1nc2c(ncn2[C@@H]2O[C@H](COP(=O)(O)OP(=O)(O)OP(=O)(O)O)[C@@H](O)[C@H]2O)c(=O)[nH]1 [GTP]
% OF CONTROL, substrate specificity of CD39-L2 (CD39-L2 [2]): 39 ± 1%

inhibition of Ca2+ and Mg2+ stimulated CD39-L4 ADPase activity, in words (CD39-L4 [3]): did not significantly inhibit
Molecule: CCN1C(=O)C=CC1=O [NEM]
inhibition of CD39-L2 ADPase activity, in words (CD39-L2 [4]): not inhibited

hydrolysis of the nucleotide by CD39-L4, in words (CD39-L4 [1]): very efficiently hydrolyzed
% OF CONTROL, substrate specificity of CD39-L4 (CD39-L4 [1]): 408 ± 14%
Molecule: O=c1ccn([C@@H]2O[C@H](COP(=O)(O)OP(=O)(O)O)[C@@H](O)[C@H]2O)c(=O)[nH]1 [UDP]
enzymatic activity relative to ADP hydrolysis (CD39-L2 [2]): 228%
% OF CONTROL, substrate specificity of CD39-L2 (CD39-L2 [2]): 303 ± 5%

% OF CONTROL, substrate specificity of CD39-L4 (CD39-L4 [1]): 12 ± 4%
Molecule: O=c1ccn([C@@H]2O[C@H](COP(=O)(O)OP(=O)(O)OP(=O)(O)O)[C@@H](O)[C@H]2O)c(=O)[nH]1 [UTP]
% OF CONTROL, substrate specificity of CD39-L2 (CD39-L2 [2]): 13 ± 1%
